In ChEMBL document CHEMBL1154597, “1,1'-Disubstituted ferrocenes as molecular hinges in mono- and bivalent dopamine receptor ligands” (J Med Chem, 2009):

Key:
D(1A) dopamine receptor = D(1A) dopamine receptor (Sus scrofa, UniProt P50130); experiment: Displacement of [3H]SCH23390 from dopamine D1 receptor in pig striatal membranes; type: cell membranes, Striatum, Membrane
D(2) dopamine receptor [1] = molecular target: T1, D(2) dopamine receptor (Homo sapiens, UniProt P14416); experiment: Displacement of [3H]spiperone from human cloned dopamine D2long receptor expressed in CHO cells; type: cell-based
T1 sequence (P14416 whole entry): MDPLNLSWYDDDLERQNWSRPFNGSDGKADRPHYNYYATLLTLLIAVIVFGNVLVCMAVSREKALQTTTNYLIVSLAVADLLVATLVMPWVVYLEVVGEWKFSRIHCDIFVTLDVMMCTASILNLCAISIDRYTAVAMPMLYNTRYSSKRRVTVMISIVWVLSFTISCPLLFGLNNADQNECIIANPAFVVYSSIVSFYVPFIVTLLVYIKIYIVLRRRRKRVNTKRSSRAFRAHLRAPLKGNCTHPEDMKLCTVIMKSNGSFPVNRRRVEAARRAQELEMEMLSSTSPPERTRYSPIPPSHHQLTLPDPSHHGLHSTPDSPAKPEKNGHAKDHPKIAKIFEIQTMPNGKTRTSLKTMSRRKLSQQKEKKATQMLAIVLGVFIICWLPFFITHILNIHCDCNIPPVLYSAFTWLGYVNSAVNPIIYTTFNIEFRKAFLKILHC

D(2) dopamine receptor [2] = molecular target: T1, D(2) dopamine receptor; experiment: Displacement of [3H]spiperone from human cloned dopamine D2short receptor expressed in CHO cells; type: cell-based
D(3) dopamine receptor = D(3) dopamine receptor (Homo sapiens, UniProt P35462); experiment: Displacement of [3H]spiperone from human cloned dopamine D3 receptor expressed in CHO cells; type: cell-based
Chain of D(3) dopamine receptor (P35462 whole entry): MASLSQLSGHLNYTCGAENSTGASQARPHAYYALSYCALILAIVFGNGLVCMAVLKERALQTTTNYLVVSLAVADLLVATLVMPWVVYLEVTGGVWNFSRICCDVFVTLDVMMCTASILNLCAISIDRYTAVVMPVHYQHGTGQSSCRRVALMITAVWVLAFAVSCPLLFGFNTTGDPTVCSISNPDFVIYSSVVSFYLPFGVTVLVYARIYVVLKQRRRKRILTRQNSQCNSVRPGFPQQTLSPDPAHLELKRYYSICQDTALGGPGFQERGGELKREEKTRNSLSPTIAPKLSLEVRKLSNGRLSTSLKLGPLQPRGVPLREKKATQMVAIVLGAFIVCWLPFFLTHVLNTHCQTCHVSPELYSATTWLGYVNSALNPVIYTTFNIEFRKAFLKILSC

D(4) dopamine receptor = molecular target: T2, D(4) dopamine receptor (Homo sapiens, UniProt P21917); experiment: Displacement of [3H]spiperone from human cloned dopamine D4.4 receptor expressed in CHO cells; type: cell-based
T2 sequence (P21917 whole entry): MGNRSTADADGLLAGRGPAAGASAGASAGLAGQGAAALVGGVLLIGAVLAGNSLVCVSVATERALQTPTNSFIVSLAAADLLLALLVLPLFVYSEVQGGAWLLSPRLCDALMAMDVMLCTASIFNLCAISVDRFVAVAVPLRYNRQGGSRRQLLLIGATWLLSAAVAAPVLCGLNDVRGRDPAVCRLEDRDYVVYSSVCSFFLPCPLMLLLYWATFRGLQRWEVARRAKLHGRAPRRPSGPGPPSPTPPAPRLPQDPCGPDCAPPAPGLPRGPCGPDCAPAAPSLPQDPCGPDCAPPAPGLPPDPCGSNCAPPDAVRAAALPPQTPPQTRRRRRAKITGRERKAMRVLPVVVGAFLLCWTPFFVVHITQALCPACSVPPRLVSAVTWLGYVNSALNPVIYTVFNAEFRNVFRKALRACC

[3] = Displacement of [3H]WAY100635 from 5HT1A receptor in pig striatal membranes; type: cell membranes, Sus scrofa, Striatum, Membrane
[4] = molecular target: 5-hydroxytryptamine receptor 2A (Sus scrofa, UniProt P50129); experiment: Displacement of [3H]ketanserin from 5HT2 receptor in pig striatal membranes; type: cell membranes, Striatum, Membrane
Chain of 5-hydroxytryptamine receptor 2A (P50129 whole entry): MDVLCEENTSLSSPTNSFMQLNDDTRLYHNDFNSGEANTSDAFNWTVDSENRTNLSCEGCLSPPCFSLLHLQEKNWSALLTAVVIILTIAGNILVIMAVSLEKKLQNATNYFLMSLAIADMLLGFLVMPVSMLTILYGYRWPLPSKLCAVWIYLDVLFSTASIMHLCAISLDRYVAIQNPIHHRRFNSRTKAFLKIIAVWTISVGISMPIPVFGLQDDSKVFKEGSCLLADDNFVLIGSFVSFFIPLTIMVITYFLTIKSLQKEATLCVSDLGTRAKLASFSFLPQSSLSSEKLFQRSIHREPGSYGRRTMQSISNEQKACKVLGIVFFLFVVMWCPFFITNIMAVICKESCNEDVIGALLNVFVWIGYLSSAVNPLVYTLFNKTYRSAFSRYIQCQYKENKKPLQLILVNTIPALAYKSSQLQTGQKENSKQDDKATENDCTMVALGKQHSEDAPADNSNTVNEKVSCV

[5] = Displacement of [3H]prazosin from adrenergic alpha1 receptor in pig striatal membranes; type: cell membranes, Sus scrofa, Striatum, Membrane

Chain of D(1A) dopamine receptor (P50130 whole entry): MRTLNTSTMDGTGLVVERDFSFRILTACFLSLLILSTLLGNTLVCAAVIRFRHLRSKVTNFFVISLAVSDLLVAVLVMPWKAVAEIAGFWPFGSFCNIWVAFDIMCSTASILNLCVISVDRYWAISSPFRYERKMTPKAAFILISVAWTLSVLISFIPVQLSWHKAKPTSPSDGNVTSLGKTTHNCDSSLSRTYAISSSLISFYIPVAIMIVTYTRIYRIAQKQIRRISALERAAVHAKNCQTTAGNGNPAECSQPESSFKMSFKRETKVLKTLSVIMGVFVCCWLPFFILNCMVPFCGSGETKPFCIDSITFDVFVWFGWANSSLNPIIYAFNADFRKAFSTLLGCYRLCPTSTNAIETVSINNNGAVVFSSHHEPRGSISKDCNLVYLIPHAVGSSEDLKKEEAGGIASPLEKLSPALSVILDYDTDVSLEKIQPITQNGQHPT

Ki (D(1A) dopamine receptor) [µM] | Ki (D(2) dopamine receptor [1]) [µM] | Ki (D(2) dopamine receptor [2]) [µM] | Ki (D(3) dopamine receptor) [µM] | Ki (D(4) dopamine receptor) [µM] | Ki [3] [µM] | Ki [4] [µM] | Ki [5] [µM] | Structure (SMILES)
9.5 | 2 | 0.77 | 0.07 | 0.85 | 1.2 | 1.7 | 0.23 | COc1ccccc1N1CCN(CCCCNC(=O)c2ccc(-c3cn(Cc4ccc(-c5ccc(Cn6cc(-c7ccc(C(=O)NCCCCN8CCN(c9ccccc9OC)CC8)cc7)nn6)cc5)cc4)nn3)cc2)CC1
3.4 | 15 | 10 | 0.23 | 3.4 | 2.5 | 3.4 | 0.35 | COc1ccccc1N1CCN(CCCCNC(=O)c2cccc(-c3cn(Cc4ccc(-c5ccc(Cn6cc(-c7cccc(C(=O)NCCCCN8CCN(c9ccccc9OC)CC8)c7)nn6)cc5)cc4)nn3)c2)CC1
